Measured values from patent publication US8883963B2 (Cadila Healthcare Limited, priority 2007, dated 2014).

Columns and labels:
[1] = test system: C57BL/6J mice (mild hyperglycemic); test: In vivo glucose reduction, acute single dose 120-min time-course, i.p. route; design: species or system mouse; unit not given here; conditions: male C57BL/6J mice
Method: All the animal experiments were carried out according to the internationally valid guidelines following approval by the ‘Zydus Research Center animal ethical committee’.
Two days prior to the study, the animals were randomised and divided into 5 groups (n=6), based upon their fed glucose levels. On the day of experiment, food was withdrawn from all the cages, water was given ad-libitum and were kept for overnight fasting. Vehicle (normal saline)/test/standard compounds were administered intraperitoneally (i.p.) or orally, on a body weight basis.
(§1) Blood samples were centrifuged and the separated serum was immediately subjected for the glucose estimation. Serum for insulin estimation was stored at −70° C. until used for the insulin estimation. The glucose estimation was carried out with DPEC-GOD/POD method (Ranbaxy Fine Chemicals Limited, Diagnostic division, India), using Spectramax-190, in 96-microwell plate reader (Molecular devices Corporation, Sunnyvale, Calif.). […] The AUC and BCAUC obtained from graphs were analyzed for one way ANOVA, followed by Dunnett's post test, using Graph Pad prism software. Furthermore, the insulin estimation was carried out using rat/mouse insulin ELISA kit (Linco research, Missouri USA).

[2] = test system: C57BL/6J mice (mild hyperglycemic); test: In vivo glucose reduction, acute single dose 120-min time-course, oral route; design: species or system mouse; unit not given here; conditions: male C57BL/6J mice
Method: Acute single dose 120-min time-course experiments were carried out in male C57BL/6J or db/db mice, age 8-12 weeks, bred in-house. Animals were housed in groups of 6 animals per cage, for a week, in order to habituate them to vivarium conditions (25±4° C., 60-65% relative humidity, 12:12 h light:dark cycle, with lights on at 7.30 am). All the animal experiments were carried out according to the internationally valid guidelines following approval by the ‘Zydus Research Center animal ethical committee’.
Two days prior to the study, the animals were randomised and divided into 5 groups (n=6), based upon their fed glucose levels. On the day of experiment, food was withdrawn from all the cages, water was given ad-libitum and were kept for overnight fasting. Vehicle (normal saline)/test/standard compounds were administered intraperitoneally (i.p.) or orally, on a body weight basis. Soon after the 0 min. blood collection from each animal, the subsequent blood collections were done at 30, 60 and 120 or up to 240 min., via retro-orbital route, under light ether anesthesia (Chen, D., et al., Diabetes Obesity Metabolism, 2005, 7, 307. Kim, J. G. et al., Diabetes, 2003, 52, 751).
as §1, with “USA). Changes in the blood glucose levels, at 0, 30, 60 and 120 min, with selected peptidomimetics are shown in Table 7 (via ip route of administration) and Table 8 (via oral route of administration) respectively.” for “USA).”

Structure (SMILES) | blood glucose levels ([2]; 2 μM/kg oral, 0 min) | blood glucose levels ([2]; 2 μM/kg oral, 30 min) | blood glucose levels ([2]; 2 μM/kg oral, 60 min) | blood glucose levels ([2]; 2 μM/kg oral, 120 min) | blood glucose levels ([1]; 30 nM/kg i.p., 0 min) | blood glucose levels ([1]; 30 nM/kg i.p., 30 min) | blood glucose levels ([1]; 30 nM/kg i.p., 60 min) | blood glucose levels ([1]; 30 nM/kg i.p., 120 min) | also measured
CCc1cc(OC)ccc1-c1ccc(CC(NC(=O)[C@H](CC(=O)O)NC(=O)[C@H](CO)NC(=O)[C@@H](NC(=O)[C@H](Cc2ccccc2)NC(=O)[C@@H](NC(=O)CNC(=O)C(CCC#N)NC(=O)C(C)(C)NC(=O)[C@@H](N)Cc2c[nH]cn2)[C@@H](C)O)[C@@H](C)O)C(=O)NC(CCCc2ccc(F)cc2C(F)(F)F)C(N)=O)cc1 (single isomer, unassigned) [Seq. ID. 80] | – | – | – | – | – | – | – | – | blood glucose levels ([1]; 10 nM/kg i.p., 0 min): 183 ± 2.2; blood glucose levels ([1]; 10 nM/kg i.p., 30 min): 113 ± 2.8; blood glucose levels ([1]; 10 nM/kg i.p., 60 min): 113 ± 2.9; blood glucose levels ([1]; 10 nM/kg i.p., 120 min): 114 ± 2.0; blood glucose levels ([2]; 0.5 μM/kg oral, 0 min): 184 ± 2.5; blood glucose levels ([2]; 0.5 μM/kg oral, 30 min): 115 ± 3.6; blood glucose levels ([2]; 0.5 μM/kg oral, 60 min): 113 ± 4.2; blood glucose levels ([2]; 0.5 μM/kg oral, 120 min): 110 ± 2.4
CCc1cc(OC)ccc1-c1ccc(CC(NC(=O)[C@H](CC(=O)O)NC(=O)[C@H](CO)NC(=O)[C@@H](NC(=O)[C@H](Cc2ccccc2)NC(=O)[C@@H](NC(=O)CNC(=O)C(CCC#N)NC(=O)C(C)(C)NC(=O)[C@@H](N)Cc2c[nH]cn2)[C@@H](C)O)[C@@H](C)O)C(=O)NC(CCCc2ccc(OC)cc2Cl)C(N)=O)cc1 (single isomer, unassigned) [Seq. ID. 84] | 183 ± 2.4 | 116 ± 3.1 | 112 ± 4.8 | 110 ± 2.5 | – | – | – | – | blood glucose levels ([1]; 10 nM/kg i.p., 0 min): 182 ± 2.3; blood glucose levels ([1]; 10 nM/kg i.p., 30 min): 110 ± 2.3; blood glucose levels ([1]; 10 nM/kg i.p., 60 min): 112 ± 3.0; blood glucose levels ([1]; 10 nM/kg i.p., 120 min): 112 ± 1.9
CCc1cc(OC)ccc1-c1ccc(CC(NC(=O)[C@H](CC(=O)O)NC(=O)[C@H](CO)NC(=O)[C@@H](NC(=O)C(C)(Cc2ccccc2F)NC(=O)[C@@H](NC(=O)CNC(=O)C(CCC#N)NC(=O)C(C)(C)NC(=O)[C@@H](N)Cc2c[nH]cn2)[C@H](C)O)[C@H](C)O)C(=O)NC(CCCc2ccccc2F)C(N)=O)cc1 (single isomer, unassigned) [Seq. ID. 116] | 185 ± 2.1 | 115 ± 2.8 | 112 ± 4.9 | 111 ± 2.2 | – | – | – | – | blood glucose levels ([1]; 50 nM/kg i.p., 0 min): 184 ± 5.0; blood glucose levels ([1]; 50 nM/kg i.p., 30 min): 122 ± 3.8; blood glucose levels ([1]; 50 nM/kg i.p., 60 min): 128 ± 2.1; blood glucose levels ([1]; 50 nM/kg i.p., 120 min): 149 ± 2.3
CCc1cc(OC)ccc1-c1ccc(CC(NC(=O)[C@H](CC(=O)O)NC(=O)[C@H](CO)NC(=O)[C@@H](NC(=O)C(C)(Cc2ccccc2F)NC(=O)[C@@H](NC(=O)CNC(=O)C(CCC#N)NC(=O)C(C)(C)NC(=O)[C@@H](N)Cc2c[nH]cn2)[C@@H](C)O)[C@H](C)O)C(=O)NC(CCCc2ccccc2F)C(N)=O)cc1 (single isomer, unassigned) [Seq. ID. 120] | 184 ± 2.5 | 115 ± 1.6 | 113 ± 3.2 | 110 ± 2.4 | 182 ± 5.1 | 118 ± 2.1 | 116 ± 2.2 | 118 ± 2.4 | –
CCc1cc(OC)ccc1-c1ccc(CC(NC(=O)[C@H](CC(=O)O)NC(=O)[C@H](CO)NC(=O)[C@@H](NC(=O)C(C)(Cc2ccccc2F)NC(=O)[C@@H](NC(=O)CNC(=O)C(CCC#N)NC(=O)C(C)(C)NC(=O)[C@@H](N)Cc2c[nH]cn2)[C@H](C)O)[C@H](C)O)C(=O)N(C)C(CCCc2ccccc2)C(N)=O)cc1 (single isomer, unassigned) [Seq. ID. 130] | 183 ± 2.4 | 116 ± 3.1 | 112 ± 4.8 | 110 ± 2.5 | 181 ± 5.2 | 119 ± 2.6 | 117 ± 2.1 | 119 ± 2.3 | –
CCc1cc(OC)ccc1-c1ccc(CC(C(=O)N(C)C(CCCc2ccccc2)C(N)=O)N(C)C(=O)[C@H](CC(=O)O)NC(=O)[C@H](CO)NC(=O)[C@@H](NC(=O)C(C)(Cc2ccccc2F)NC(=O)[C@@H](NC(=O)CNC(=O)C(CCC#N)NC(=O)C(C)(C)NC(=O)[C@@H](N)Cc2c[nH]cn2)[C@H](C)O)[C@H](C)O)cc1 (single isomer, unassigned) [Seq. ID. 142] | 185 ± 2.3 | 115 ± 3.8 | 113 ± 4.9 | 109 ± 2.2 | 183 ± 4.9 | 117 ± 2.5 | 116 ± 2.3 | 119 ± 2.0 | –
CCc1cc(OC)ccc1-c1ccc(CC(C(=O)N(C)C(CCCc2ccccc2)C(N)=O)N(C)C(=O)[C@H](CC(=O)O)N(C)C(=O)[C@H](CO)NC(=O)[C@@H](NC(=O)C(C)(Cc2ccccc2F)NC(=O)[C@@H](NC(=O)CNC(=O)C(CCC#N)NC(=O)C(C)(C)NC(=O)[C@@H](N)Cc2c[nH]cn2)[C@H](C)O)[C@H](C)O)cc1 (single isomer, unassigned) [Seq. ID. 154] | 181 ± 2.5 | 117 ± 3.3 | 112 ± 4.0 | 108 ± 2.9 | 181 ± 4.1 | 117 ± 3.8 | 117 ± 3.0 | 117 ± 1.6 | –
CCc1cc(OC)ccc1-c1ccc(CC(NC(=O)[C@H](CC(=O)O)NC(=O)[C@H](CO)NC(=O)[C@@H](NC(=O)C(C)(Cc2ccccc2F)NC(=O)[C@@H](NC(=O)CNC(=O)C(CCC#N)NC(=O)C(C)(C)NC(=O)[C@@H](N)Cc2c[nH]cn2)[C@H](C)O)[C@H](C)O)C(=S)NC(CCCc2ccccc2F)C(N)=O)cc1 (single isomer, unassigned) [Seq. ID. 168] | – | – | – | – | – | – | – | – | blood glucose levels ([1]; 20 nM/kg i.p., 0 min): 182 ± 3.3; blood glucose levels ([1]; 20 nM/kg i.p., 30 min): 120 ± 3.6; blood glucose levels ([1]; 20 nM/kg i.p., 60 min): 127 ± 3.4; blood glucose levels ([1]; 20 nM/kg i.p., 120 min): 145 ± 2.1; blood glucose levels ([2]; 1.5 μM/kg oral, 0 min): 183 ± 2.0; blood glucose levels ([2]; 1.5 μM/kg oral, 30 min): 117 ± 1.1; blood glucose levels ([2]; 1.5 μM/kg oral, 60 min): 112 ± 1.1; blood glucose levels ([2]; 1.5 μM/kg oral, 120 min): 110 ± 1.8
CCc1cc(OC)ccc1-c1ccc(CC(NC(=S)[C@H](CC(=O)O)NC(=O)[C@H](CO)NC(=O)[C@@H](NC(=O)C(C)(Cc2ccccc2F)NC(=O)[C@@H](NC(=O)CNC(=O)C(CCC#N)NC(=O)C(C)(C)NC(=O)[C@@H](N)Cc2c[nH]cn2)[C@H](C)O)[C@H](C)O)C(=S)NC(CCCc2ccccc2F)C(N)=O)cc1 (single isomer, unassigned) [Seq. ID. 180] | 184 ± 2.2 | 118 ± 3.3 | 112 ± 4.4 | 110 ± 2.9 | – | – | – | – | blood glucose levels ([1]; 20 nM/kg i.p., 0 min): 180 ± 3.1; blood glucose levels ([1]; 20 nM/kg i.p., 30 min): 122 ± 3.9; blood glucose levels ([1]; 20 nM/kg i.p., 60 min): 129 ± 2.2; blood glucose levels ([1]; 20 nM/kg i.p., 120 min): 140 ± 2.9
